Mutagenic call data for 4 molecules are collected here from PubChem BioAssay AID1259407 (Chemical Carcinogenesis Research Information System (CCRIS), 2018).

Structures are written as SMILES. The source made the active and inactive calls. No rule for the calls is given here.

In the data set the test system is CCRIS mutagenicity, Ames/micronucleus/aberration tests. Nature of the data set: CCRIS mutagenicity studies.
Where [1] appears, read: Test System: AMES SALMONELLA TYPHIMURIUM, Strain/Indicator: TA98, Metabolic Activation: NONE, Method: STANDARD PLATE.
The mark [2] stands for this setting: Test System: AMES SALMONELLA TYPHIMURIUM, Strain/Indicator: TA100, Metabolic Activation: NONE, Method: STANDARD PLATE.
The mark [3] stands for this setting: Test System: AMES SALMONELLA TYPHIMURIUM, Strain/Indicator: TA97, Metabolic Activation: HAMSTER, LIVER, S-9, AROCLOR 1254 (10%), Method: PREINCUBATION
Where [4] appears, read: Test System: AMES SALMONELLA TYPHIMURIUM, Strain/Indicator: TA97, Metabolic Activation: NONE, Method: PREINCUBATION
Where [5] appears, read: Test System: AMES SALMONELLA TYPHIMURIUM, Strain/Indicator: TA97, Metabolic Activation: RAT, LIVER, S-9, AROCLOR 1254 (10%), Method: PREINCUBATION
The mark [6] stands for this setting: Test System: AMES SALMONELLA TYPHIMURIUM, Strain/Indicator: TA98, Metabolic Activation: HAMSTER, LIVER, S-9, AROCLOR 1254 (10%), Method: PREINCUBATION
The mark [7] stands for this setting: Test System: AMES SALMONELLA TYPHIMURIUM, Strain/Indicator: TA98, Metabolic Activation: NONE, Method: PREINCUBATION
The mark [8] stands for this setting: Test System: AMES SALMONELLA TYPHIMURIUM, Strain/Indicator: TA98, Metabolic Activation: RAT, LIVER, S-9, AROCLOR 1254 (10%), Method: PREINCUBATION
The mark [9] stands for this setting: Test System: AMES SALMONELLA TYPHIMURIUM, Strain/Indicator: TA100, Metabolic Activation: HAMSTER, LIVER, S-9, AROCLOR 1254 (10%), Method: PREINCUBATION
[10] abbreviates: Test System: AMES SALMONELLA TYPHIMURIUM, Strain/Indicator: TA100, Metabolic Activation: NONE, Method: PREINCUBATION
Setting [11] is: Test System: AMES SALMONELLA TYPHIMURIUM, Strain/Indicator: TA100, Metabolic Activation: RAT, LIVER, S-9, AROCLOR 1254 (10%), Method: PREINCUBATION
Where [12] appears, read: Test System: AMES SALMONELLA TYPHIMURIUM, Strain/Indicator: TA1535, Metabolic Activation: HAMSTER, LIVER, S-9, AROCLOR 1254 (10%), Method: PREINCUBATION
Where [13] appears, read: Test System: AMES SALMONELLA TYPHIMURIUM, Strain/Indicator: TA1535, Metabolic Activation: NONE, Method: PREINCUBATION
[14] abbreviates: Test System: AMES SALMONELLA TYPHIMURIUM, Strain/Indicator: TA1535, Metabolic Activation: RAT, LIVER, S-9, AROCLOR 1254 (10%), Method: PREINCUBATION

Take `CN(C)c1ccc(NS(=O)(=O)c2cccc3cccnc23)cc1`: the mutagenic call under setting [1] was “inactive; negative”; the mutagenic call (Test System: AMES SALMONELLA TYPHIMURIUM, Strain/Indicator: TA98, Metabolic Activation: RAT, LIVER, S-9, AROCLOR 1254, Method: STANDARD PLATE) is “active; positive”; the mutagenic call under setting [2] was “inactive; negative”; the mutagenic call (Test System: AMES SALMONELLA TYPHIMURIUM, Strain/Indicator: TA100, Metabolic Activation: RAT, LIVER, S-9, AROCLOR 1254, Method: STANDARD PLATE) was “active; positive”; the mutagenic call (Test System: AMES SALMONELLA TYPHIMURIUM, Strain/Indicator: TA1535, Metabolic Activation: NONE, Method: STANDARD PLATE) is “inactive; negative”; the mutagenic call (Test System: AMES SALMONELLA TYPHIMURIUM, Strain/Indicator: TA1535, Metabolic Activation: RAT, LIVER, S-9, AROCLOR 1254, Method: STANDARD PLATE) was “inactive; negative”. Further, the mutagenic call reads like this: (Test System: AMES SALMONELLA TYPHIMURIUM, Strain/Indicator: TA1537, Metabolic Activation: NONE, Method: STANDARD PLATE) “inactive; negative”; (Test System: AMES SALMONELLA TYPHIMURIUM, Strain/Indicator: TA1537, Metabolic Activation: RAT, LIVER, S-9, AROCLOR 1254, Method: STANDARD PLATE) “inactive; negative”.
Take `O=C1CN(/N=C/C=C/c2ccc([N+](=O)[O-])o2)C(=O)N1`: the mutagenic call is, setting by setting: (Test System: AMES SALMONELLA TYPHIMURIUM, Strain/Indicator: TA97, Metabolic Activation: NONE, Method: STANDARD PLATE) “active; positive”; under setting [1], “active; positive”; under setting [2], “active; positive”; (Test System: E. COLI WP2, Strain/Indicator: WP2, Metabolic Activation: NONE, Method: SPOT) “active; positive”.
Turning to `COc1ccc(C(=O)/C(Br)=C\C(=O)O)cc1`, the mutagenic call (End Point: IN VITRO CHROMOSOMAL ABERRATIONS, Test System: CHO CELLS, Metabolic Activation: NONE) is “active; positive”; the mutagenic call (End Point: IN VITRO CHROMOSOMAL ABERRATIONS, Test System: CHO CELLS, Metabolic Activation: RAT, LIVER, S-9, AROCLOR 1254) is “active; positive”; the mutagenic call under setting [3] is “active; positive”; the mutagenic call under setting [4] is “active; positive”; the mutagenic call under setting [5] is “active; positive”; the mutagenic call under setting [6] was “active; positive”. Further, the mutagenic call by setting is: under setting [7], “active; positive”; under setting [8], “active; positive”; under setting [9], “active; positive”; under setting [10], “active; positive”; under setting [11], “active; positive”; under setting [12], “active; positive”. Moreover, the mutagenic call reads like this: under setting [13], “inactive; negative”; under setting [14], “active; positive”; (Test System: MOUSE LYMPHOMA, Strain/Indicator: L5178Y (TK+/TK-), Metabolic Activation: NONE, Method: SUSPENSION/PLATE) “active; positive”; (Test System: UDS RODENT HEPATOCYTES, Strain/Indicator: THY INCORP (NON-S-PHASE), Metabolic Activation: 3-METHYLCHOLANTHRENE, Method: AUTORADIOGRAPHY) “active; positive”; (Test System: UDS RODENT HEPATOCYTES, Strain/Indicator: THY INCORP (NON-S-PHASE), Metabolic Activation: AROCLOR, Method: AUTORADIOGRAPHY) “active; positive”; (Test System: UDS RODENT HEPATOCYTES, Strain/Indicator: THY INCORP (NON-S-PHASE), Metabolic Activation: NONE, Method: AUTORADIOGRAPHY) “inactive; negative”.
Regarding `C=CC(C)C#N` (stereo not drawn), the mutagenic call by setting is: (Test System: AMES SALMONELLA TYPHIMURIUM, Strain/Indicator: TA97, Metabolic Activation: HAMSTER, LIVER, S-9, AROCLOR 1254 (5 OR 30%), Method: PREINCUBATION) “inactive; negative”; under setting [3], “inactive; negative”; under setting [4], “inactive; negative”; under setting [5], “inactive; negative”; (Test System: AMES SALMONELLA TYPHIMURIUM, Strain/Indicator: TA97, Metabolic Activation: RAT, LIVER, S-9, AROCLOR 1254 (30%), Method: PREINCUBATION) “inactive; negative”; under setting [6], “inactive; negative”. For the same molecule, the mutagenic call was “inactive; negative” (Test System: AMES SALMONELLA TYPHIMURIUM, Strain/Indicator: TA98, Metabolic Activation: HAMSTER, LIVER, S-9, AROCLOR 1254 (30%), Method: PREINCUBATION); “inactive; negative” under setting [7]; “inactive; negative” under setting [8]; “inactive; negative” (Test System: AMES SALMONELLA TYPHIMURIUM, Strain/Indicator: TA98, Metabolic Activation: RAT, LIVER, S-9, AROCLOR 1254 (30%), Method: PREINCUBATION); “inactive; negative” under setting [9]; “inactive; negative” (Test System: AMES SALMONELLA TYPHIMURIUM, Strain/Indicator: TA100, Metabolic Activation: HAMSTER, LIVER, S-9, AROCLOR 1254 (30%), Method: PREINCUBATION). Besides, the mutagenic call by setting is: under setting [10], “inactive; negative”; under setting [11], “inactive; negative”; (Test System: AMES SALMONELLA TYPHIMURIUM, Strain/Indicator: TA100, Metabolic Activation: RAT, LIVER, S-9, AROCLOR 1254 (30%), Method: PREINCUBATION) “inactive; negative”; under setting [12], “inactive; negative”; (Test System: AMES SALMONELLA TYPHIMURIUM, Strain/Indicator: TA1535, Metabolic Activation: HAMSTER, LIVER, S-9, AROCLOR 1254 (30%), Method: PREINCUBATION) “inactive; negative”; under setting [13], “inactive; negative”. Further, the mutagenic call is, setting by setting: under setting [14], “inactive; negative”; (Test System: AMES SALMONELLA TYPHIMURIUM, Strain/Indicator: TA1535, Metabolic Activation: RAT, LIVER, S-9, AROCLOR 1254 (30%), Method: PREINCUBATION) “inactive; negative”; (Test System: AMES SALMONELLA TYPHIMURIUM, Strain/Indicator: TA1537, Metabolic Activation: HAMSTER, LIVER, S-9, AROCLOR 1254 (30%), Method: PREINCUBATION) “inactive; negative”; (Test System: AMES SALMONELLA TYPHIMURIUM, Strain/Indicator: TA1537, Metabolic Activation: NONE, Method: PREINCUBATION) “inactive; negative”; (Test System: AMES SALMONELLA TYPHIMURIUM, Strain/Indicator: TA1537, Metabolic Activation: RAT, LIVER, S-9, AROCLOR 1254 (30%), Method: PREINCUBATION) “inactive; negative”.
